According to patent US20190125888A1, “TARGETED CONJUGATES AND PARTICLES AND FORMULATIONS THEREOF” (priority 2015, published 2019):
Read-outs that look alike come from different tables or passages of the source.

Tests used:
[1] = Chrom LogP of maytansinoid conjugates; assay type: physicochemical
[2] = Ligand charge of maytansinoid conjugates; assay type: physicochemical
human SSTR2 = human SSTR2 (Homo sapiens, UniProt P30874); assay: Radioligand-receptor binding assay, [125I] somatostatin, membranes from SSTR2 expressing CHO-K1 cells
Method in brief: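 CHO-K1 SSTR2 membranes incubated 4 h with 0.03 nM [125I] somatostatin and conjugates in a 10-point, 6-fold series from 10 uM. Bound radioligand measured after filtration and washing; IC50 by non-linear least-squares regression.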

[3] = system: NCI-H524 (ATCC) human lung cancer cells; assay type: cell-based
Method in brief: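 NCI-H524 cells (5,000/well) exposed to conjugates for 6 hours, washed, then grown a further 66 hours; ten-point threefold dilutions from 20 μM. Proliferation by CellTiter-Glo versus vehicle; IC50 by four-parameter nonlinear regression, measured with and without octreotide competition.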

Half-life in rat plasma = assay type: in vitro ADME; conditions: read-out: rat plasma t½ (converted)
Method: (§1) Half-life (t1/2) of maytansinoid conjugates were measured in rat plasma and rat liver microsomes (LM). PK values of maytansinoid conjugates in NCI-H69 SCLC (small cell lung cancer) tumor cells were measured.

[4] = Half-life in rat liver microsomes; assay type: in vitro ADME; conditions: read-out: rat LM t½ (mm)
Method: as §1

[5] = system: NCI-H69 SCLC (small cell lung cancer) tumor cells; assay: H69 tumor PK; assay type: in vivo
Method: as §1

human NCI-H69 SCLC = assay: H69 xenograft efficacy study, tumor growth inhibition; assay type: in vivo, mice
Method: Applicants assessed the activity of maytansinoid conjugates in vivo. In these experiments, the ability of conjugates to affect the growth of human NCI-H69 SCLC was tested. For the in vivo study, 8 week old female NCR nude mice were inoculated subcutaneously into the right flank with 2 million cells in 1:1 RPMI 1640 (Invitrogen, Carlsbad, Calif.)/Matrigel® (BD Biosciences, San Jose, Calif.). Tumor measurements were taken twice weekly, using vernier calipers. Tumor volume was calculated using the formula: V=0.5×width×width×length.
When tumors approached a volume of 200 mm^3, mice were randomized into four groups of ten animals. Mice were treated with vehicle control (10% propylene glycol in water for injection) and maytansinoid conjugates (10% propylene glycol in water for injection). Final tumor volumes were analyzed using with a one-way analysis of variance and Tukey multiple comparison test.

[6] = Pharmacokinetics study in mouse; conditions: in vivo
Method: Pharmacokinetics studies in mouse were also carried out. Half-life, Cmax and AUC values of Conjugate 6 were show in Table 10.

phospho-histone H3 = assay: Phospho-histone H3 response in NCI-H69 tumors; assay type: in vivo, mice
Method: Phospho-histone H3 response in NCI-H69 tumors was measured. […] At 24 hour, adjusted phospho-histone H3 response for Conjugate 6 was about 500 (fluorescence signal) and at 48 hour it was about 2300 (fluorescence signal).

[7] = 1.3 mg/kg once weekly for two doses
[8] = 2 mg/kg once weekly for two doses

Chain of human SSTR2 (P30874 whole entry): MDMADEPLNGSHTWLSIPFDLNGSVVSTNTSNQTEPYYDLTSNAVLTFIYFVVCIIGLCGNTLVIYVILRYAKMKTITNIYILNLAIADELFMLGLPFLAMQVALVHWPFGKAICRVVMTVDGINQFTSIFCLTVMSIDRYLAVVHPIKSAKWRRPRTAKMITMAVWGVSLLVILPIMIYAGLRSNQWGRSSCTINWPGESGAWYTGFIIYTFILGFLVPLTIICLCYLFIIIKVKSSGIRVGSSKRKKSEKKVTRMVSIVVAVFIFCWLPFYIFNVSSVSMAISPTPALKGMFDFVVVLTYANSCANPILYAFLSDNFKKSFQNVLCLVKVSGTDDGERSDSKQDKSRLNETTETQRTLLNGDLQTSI

SMILES: COc1cc2cc(c1Cl)N(C)C(=O)C[C@H](OC(=O)[C@H](C)N(C)C(=O)CCSSC(C)(C)[C@H](NC(=O)[C@@H]1CSSC[C@H](NC(=O)[C@H](N)Cc3ccccc3)C(=O)N[C@@H](Cc3ccc(O)cc3)C(=O)N[C@H](Cc3c[nH]c4ccccc34)C(=O)N[C@@H](CCCCN)C(=O)N[C@@H]([C@@H](C)O)C(=O)N1)C(N)=O)[C@]1(C)O[C@H]1[C@H](C)[C@@H]1C[C@@](O)(NC(=O)O1)[C@H](OC)/C=C/C=C(\C)C2 [Conjugate 6]
- chromatographic logP [1]: 2.06
- Ligand charge [2]: +2
- Ki (human SSTR2): 0.021 nM
- IC50 ([3]; read-out: H524 IC50 6 h, 6 hours treatment, further 66 hours incubation): 13 nM
- IC50 ([3]; read-out: H524 IC50 with 100 μM octreotide 6 h, with 100 μM octreotide competition, 6 h treatment): 545 nM
- half-life (Half-life in rat plasma): 18.2 h
- half-life [4]: 2.97 h
- H69 tumor PK normalized- uM/umol/kg at 1 mpk in 10% PG [5]: Ca. 0.420 uM/umol/kg
- TGI % at day 33 (human NCI-H69 SCLC; 0.7 mg/kg once weekly for three doses, day 33): 31.9%
- TGI % Day 11 (human NCI-H69 SCLC; 0.7 mg/kg once weekly for two doses, Day 11): 55%
- TGI % Day 14 (human NCI-H69 SCLC; 0.7 mg/kg once weekly for two doses, Day 14): 60%
- TGI % Day 18 (human NCI-H69 SCLC; 0.7 mg/kg once weekly for two doses, Day 18): 65%
- TGI % Day 21 (human NCI-H69 SCLC; 0.7 mg/kg once weekly for two doses, Day 21): 69%
- TGI % Day 25 (human NCI-H69 SCLC; 0.7 mg/kg once weekly for two doses, Day 25): 59%
- TGI % Day 13 (human NCI-H69 SCLC; [7]): 69.1%
- TGI % Day 17 (human NCI-H69 SCLC; [7]): 75.6%
- TGI % Day 20 (human NCI-H69 SCLC; [7]): 76.8%
- TGI % Day 24 (human NCI-H69 SCLC; [7]): 72.7%
- TGI % Day 30 (human NCI-H69 SCLC; [7]): 72.1%
- TGI % Day 13 (human NCI-H69 SCLC; [8]): 93.4%
- TGI % Day 17 (human NCI-H69 SCLC; [8]): 96.2%
- TGI % Day 20 (human NCI-H69 SCLC; [8]): 98.2%
- TGI % Day 24 (human NCI-H69 SCLC; [8]): 99.5%
- TGI % Day 30 (human NCI-H69 SCLC; [8]): 99.9%
- TGI % at day 22 (human NCI-H69 SCLC; Dose 0.63 × 3 mg/kg, total dose 1.89 mg/kg): 47%
- TGI % at day 22 (human NCI-H69 SCLC; Dose 0.65 × 2 mg/kg, total dose 1.3 mg/kg): 69%
- TGI % at day 22 (human NCI-H69 SCLC; Dose 1.2 × 2 mg/kg, total dose 2.4 mg/kg): 77%
- TGI % at day 22 (human NCI-H69 SCLC; Dose 2.0 × 2 mg/kg, total dose 4.0 mg/kg): 98%
- AUC(0-inf) [6]: 4.45 µM·h
- Cmax [6]: 3000 nM
- half-life ([6]; read-out: t½ (converted)): 2.05 h
- adjusted phospho-histone H3 response (phospho-histone H3; at 24 hour): about 500 fluorescence signal
- adjusted phospho-histone H3 response (phospho-histone H3; at 48 hour): about 2300 fluorescence signal
